Experimental data reported in US9061010B2, “Methods of treating a Flaviviridae family viral infection and compositions for treating a Flaviviridae family viral infection” (The Board of Trustees of the Leland Stanford Junior …, priority 2007, dated 2015).
“Also recorded” adds a separate entry of the source.

Legend:
[1] = target: HCV NS4B binding to the 3′ terminus of the HCV negative strand RNA (Hepatitis C virus genotype 1a, UniProt P27958); assay: Microfluidic (MITOMI) in vitro RNA binding assay of NS4B; settings: 10 nM clemizole
[2] = cited from earlier work
HCV (genotype 4) = assay: Treatment of patients chronically infected with HCV, serum HCV viral load; type: in vivo, human
Protocol: Three patients chronically-infected with HCV (genotype 4) were treated in accordance with an embodiment of the method of the invention. All were male and had baseline ALT elevations and significant HCV viral loads ranging from 290,000-730,000 IU/ml.
After the first four weeks of clemizole monotherapy, pegylated interferon (180 micrograms Pegasus (Roche) s.q. per week) was added.

[3] = target: T1, W55R NS4B mutant binding to HCV RNA (Hepatitis C virus genotype 1a, UniProt P27958, A1893V/D1840G/F1898S/L1839I/R1905H/S1900A/W1766R); assay: Microfluidic in vitro RNA binding assay, W55R NS4B mutant; settings: 10 nM clemizole
T1 construct: made in house; host or cells: coupled transcription/translation rabbit reticulocyte system (Promega) with canine microsomal membranes
Excerpt: This mutation was also introduced into the NS4B-GFP vector and the resulting vector tested for its RNA binding activity using the in vitro microfluidic assay of the invention.
The plasmid pcDNA-NS4B-GFP encoding NS4B of genotype 1a fused in frame with a C-terminal GFP was previously described^5. The mutations RRa, RRb and W55R were introduced into this plasmid by site-directed mutagenesis (using the QuikChange kit (Stratagene)). The plasmid NS5A(AH)GFP was constructed as previously reported. Gus-his vector was obtained from Roche.

HuR protein = target: T2, HuR protein (Homo sapiens, UniProt Q15717); assay: Microfluidic RNA binding assay of HuR (specificity of hits); settings: 0.1 mM
T2 construct: made in house; […]
Excerpt: For each experiment, an image was taken after MITOMI and the final PBS wash. This was used to determine the concentration of surface bound protein (FITC channel) as well as surface bound target RNA (Cy3 channel). […] Data from multiple data points were averaged, and their standard deviations calculated. Results were then normalized to 1. Between 10-20 replicates were included for each probe tested. A control protein, Gus-his (Roche) was included in each experiment and subjected to the same analysis. When present, detected signal with Gus-his was used for background subtraction.
Specificity of hits identified in the small molecule screen: To determine the specificity of the hits identified in the small molecule screen, the HuR protein (one of the human RNA binding protein used to validate our RNA binding assay) was selected. […] Binding of HuR to the consensus 4A RNA sequence was tested in the presence of the inhibitory molecules shown to inhibit RNA binding by NS4B. […] Similarly, 0.1 mM of the identified compounds didn't have an inhibitory effect on binding of HuR to the 3′ terminus of the negative HCV RNA strand.

[4] = cited from earlier work; remark: listed apart in the source
[5] = test system: HCV RNA replication (full-length luciferase reporter-linked HCV genome); assay: Luciferase reporter-linked HCV replication assay in Huh7.5 cells; type: cell-based, Hepatitis C Virus
Protocol: For example, HCV replication assays employing a luciferase reporter-linked HCV genome in the presence of various combinations of clemizole and an NS3 protease inhibitor (SCH503034) are shown in FIGS. 1A and 1B. In such assays, luciferase activity is directly proportional to HCV RNA genome replication. […] The results can be plotted on a linear or log scale as a function of drug concentrations to generate replication inhibition curves.
Luciferase assays were performed at 72 hr.
(§1) Medium was changed daily.
The experiment was repeated four times, each time with triplicates.

W55R mutant J6/JFH RNA = assay: Luciferase reporter-linked replication assay, W55R mutant; type: cell-based, Hepatitis C Virus; settings: 10 μM clemizole; whole cell RNA or in vitro-transcribed RNA
Excerpt: Two of the clemizole-resistant NS4B mutants were characterized in detail. The first, W55R is depicted in FIG. 9a. It involves the substitution of an arginine for the tryptophan at amino acid 55 within a predicted cytoplasmically-oriented segment of NS4B. This mutation is sufficient to confer a clemizole-resistant phenotype in cells: Huh7.5 cells transfected with either whole cell RNA extracted from the W55R mutant cells (FIG. 9b) or with in vitro-transcribed J6/JFH RNA encoding this point mutation and a linked luciferase reporter gene (FIG. 9c) were unaffected by 10 μM clemizole.
The plasmid FL-J6/JFH-5′C19Rluc2AUbi that consists of the full-length HCV genome and expresses Renilla luciferase was a gift from Dr. Charles M. Rice^28. The W55R mutation was introduced into this plasmid by site-directed mutagenesis (using the QuikChange kit (Stratagene)).
as §1
Whole cell RNA was extracted from clemizole-resistant replicon clones and from untreated replicon cells using TRIzol reagent (Invitrogen). Equal amounts of whole cell RNA (50 μg) were electroporated into Huh7.5 cells as described above. Cells were grown under G418 selection in the presence or absence of clemizole for 3 weeks. The number of colonies was determined using Image J (NIH) following fixation and staining with Crystal violet.

Huh7.5 cells = assay: Alamar Blue viability assay; settings: HCV-infected Huh7.5 cells, 72 hours, FIG. 15
Protocol: Huh-7.5 cells were maintained in Dulbecco's modified minimal essential medium (Gibco) supplemented with 1% L-glutamine (Gibco), 1% penicillin, 1% streptomycin (Gibco), 1× nonessential amino acids (Gibco) and 10% fetal bovine serum (Omega Scientific). Cell lines were passaged twice weekly after treatment with 0.05% trypsin-0.02% EDTA and seeding at a dilution of 1:5. Subconfluent Huh-7.5 cells were trypsinized and collected by centrifugation at 700 g for 5 min. The cells were then washed three times in ice-cold RNase-free PBS (BioWhittaker) and resuspended at 1.5*10^7 cells/ml in PBS. Wild type or mutant FL-J6/JFH-5′C19Rluc2AUbi RNA for electroporation was generated by in vitro transcription of XbaI-linearized DNA templates using the T7 MEGAscript kit (Ambion), followed by purification, essentially as described above (In vitro RNA transcription and fluorescent labeling). 5 μg of RNA was mixed with 400 μl of washed Huh-7.5 cells in a 2 mm-gap cuvette (BTX) and immediately pulsed (0.82 kV, five 99 μs pulses) with a BTX-830 electroporator. After a 10 min recovery at 25° C., pulsed cells were diluted into 10 ml of prewarmed growth medium. Cells from several electroporations were pooled to a common a stock and seeded in 6 well plates (5*10^5 cells per well). After 24 hr, medium was replaced and cells were grown in the presence of serial dilutions of the various inhibitory compounds (Sigma) identified in the screen. […] Untreated cells were used as a negative control for water soluble compounds. For compounds solubilized in DMSO, untreated cells were grown in the presence of corresponding concentrations of the solvent as a negative control. Medium was changed daily. After 72 hr of treatment, cells were subjected to an alamar blue based viability assay and luciferase assay.
Following 72 hrs of treatment, cells were incubated for 3 hrs at 37° C. in the presence of 10% Alamar Blue reagent (TREK Diagnostic Systems).

**Q.** With `Clc1ccc(Cn2c(CN3CCCC3)nc3ccccc32)cc1` [clemizole] as the compound, how does the “reduction of RNA binding, wild type NS4B” value [1] read?
**A.** Its value is ~2 fold.

**Q.** And the “drowsiness, share of patients treated” value ([2]; Zierz and Greither)?
**A.** The value was 1.3%.

**Q.** What about the patients with drowsiness ([2]; human, in vivo) of the same compound?
**A.** The patients with drowsiness was 2 of the 104 patients.

**Q.** What about the “subjects who responded to treatment” value ([2]; various dosage forms) of the same compound?
**A.** Its value is 92 of the 104 subjects.

**Q.** And the “HCV viral load after clemizole monotherapy” value (HCV (genotype 4); 100 mg po BID, week 4, 3 patients)?
**A.** Its value is “nearly at or below the limit of HCV detection; also recorded: completely, or nearly, undetectable”.

**Q.** What about the “HCV viral load after clemizole monotherapy plus clemizole with pegylated interferon” value (HCV (genotype 4); 4 weeks monotherapy plus 4 weeks clemizole-standard dose pegylated interferon) of the same compound?
**A.** The value was “below the limit of detection”.

**Q.** What about the “reduction of RNA binding, W55R mutant NS4B” value [3] of the same compound?
**A.** The value was ~2 fold.

**Q.** What about the “inhibitory effect on binding of HuR to the consensus 4A RNA sequence” value (HuR protein) of the same compound?
**A.** The value was “No inhibitory effect”.

**Q.** What about the “patients reporting excellent relief of itching” value ([4]; 40 to 160 mg/day) of the same compound?
**A.** The value was 66%.

**Q.** And the “patients reporting good relief of itching” value ([4]; 40 to 160 mg/day)?
**A.** Its value is 23%.

**Q.** And the “patients with mild side effects” value ([4]; drowsiness most common)?
**A.** Its value is 4 patients.

**Q.** And the “difference between IC50 for in vitro RNA binding and EC50 for antiviral effect in cells” value [5]?
**A.** The value was ~400 fold.

**Q.** What about the “effect of adding clemizole to SCH503034 on inhibition of HCV replication” value ([5]; SCH503034 1-5 micromolar, 72 hours, FIGS. 1A and 1B) of the same compound?
**A.** Its value is “increase the inhibition of HCV replication in a dose-dependent manner by up to several logs”.

**Q.** What about the “replication of W55R mutant in presence of clemizole” value (W55R mutant J6/JFH RNA) of the same compound?
**A.** Its value is “unaffected”.

**Q.** What about the “toxicity to the cell in the real-time PCR experiment” value (Huh7.5 cells) of the same compound?
**A.** Its value is “no measurable toxicity to the cell”.
